According to ChEMBL document CHEMBL5321194 (J Med Chem, 2023):
pEC50, pIC50: −log10 of the molar value. Values after ≈ are worked out from the molar mass of the structure shown.

Assays:
[1] = target: Dual specificity tyrosine-phosphorylation-regulated kinase 1A (Homo sapiens, UniProt Q13627)
[2] = target: Dual specificity protein kinase CLK2 (Homo sapiens, UniProt P49760); assay: Inhibition of human CLK2 using myelin basic protein as substrate in presence of [gamma-33p]-ATP by radiometric hotspot kinase
SRSF protein kinase 3 [3] = target: T1, SRSF protein kinase 3 (Homo sapiens, UniProt Q9UPE1)
[4] = target: T2, Dual specificity tyrosine-phosphorylation-regulated kinase 2 (Homo sapiens, UniProt Q92630)
T2 sequence (Q92630 whole entry): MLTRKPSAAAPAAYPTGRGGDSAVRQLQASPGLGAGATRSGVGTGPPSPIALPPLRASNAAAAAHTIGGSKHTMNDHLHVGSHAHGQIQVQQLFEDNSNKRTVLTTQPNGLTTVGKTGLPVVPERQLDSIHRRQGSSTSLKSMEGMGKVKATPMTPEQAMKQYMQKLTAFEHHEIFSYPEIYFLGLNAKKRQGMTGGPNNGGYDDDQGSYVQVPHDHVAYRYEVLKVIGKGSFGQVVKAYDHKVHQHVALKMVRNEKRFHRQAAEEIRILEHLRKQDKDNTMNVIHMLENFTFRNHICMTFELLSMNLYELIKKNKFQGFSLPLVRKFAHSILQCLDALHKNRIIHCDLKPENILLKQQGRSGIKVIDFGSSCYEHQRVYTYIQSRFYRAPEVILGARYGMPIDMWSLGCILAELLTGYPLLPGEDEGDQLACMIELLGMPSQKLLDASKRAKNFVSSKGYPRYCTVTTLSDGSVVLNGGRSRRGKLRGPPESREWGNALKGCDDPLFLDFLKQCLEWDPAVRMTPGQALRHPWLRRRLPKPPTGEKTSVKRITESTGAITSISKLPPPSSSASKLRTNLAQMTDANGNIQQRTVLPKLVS

SRSF protein kinase 1 [5] = target: T3, SRSF protein kinase 1 (Homo sapiens, UniProt Q96SB4)
[6] = target: Dual specificity protein kinase CLK4 (Homo sapiens, UniProt Q9HAZ1); assay: Inhibition of human CLK4 using myelin basic protein as substrate in presence of [gamma-33p]-ATP by radiometric hotspot kinase
[7] = target: Dual specificity protein kinase CLK3 (Homo sapiens, UniProt P49761); assay: Inhibition of human CLK3 using myelin basic protein as substrate in presence of [gamma-33p]-ATP by radiometric hotspot kinase
SRSF protein kinase 2 [8] = target: T4, SRSF protein kinase 2 (Homo sapiens, UniProt P78362)
Target sequence in this assay (P78362 whole entry): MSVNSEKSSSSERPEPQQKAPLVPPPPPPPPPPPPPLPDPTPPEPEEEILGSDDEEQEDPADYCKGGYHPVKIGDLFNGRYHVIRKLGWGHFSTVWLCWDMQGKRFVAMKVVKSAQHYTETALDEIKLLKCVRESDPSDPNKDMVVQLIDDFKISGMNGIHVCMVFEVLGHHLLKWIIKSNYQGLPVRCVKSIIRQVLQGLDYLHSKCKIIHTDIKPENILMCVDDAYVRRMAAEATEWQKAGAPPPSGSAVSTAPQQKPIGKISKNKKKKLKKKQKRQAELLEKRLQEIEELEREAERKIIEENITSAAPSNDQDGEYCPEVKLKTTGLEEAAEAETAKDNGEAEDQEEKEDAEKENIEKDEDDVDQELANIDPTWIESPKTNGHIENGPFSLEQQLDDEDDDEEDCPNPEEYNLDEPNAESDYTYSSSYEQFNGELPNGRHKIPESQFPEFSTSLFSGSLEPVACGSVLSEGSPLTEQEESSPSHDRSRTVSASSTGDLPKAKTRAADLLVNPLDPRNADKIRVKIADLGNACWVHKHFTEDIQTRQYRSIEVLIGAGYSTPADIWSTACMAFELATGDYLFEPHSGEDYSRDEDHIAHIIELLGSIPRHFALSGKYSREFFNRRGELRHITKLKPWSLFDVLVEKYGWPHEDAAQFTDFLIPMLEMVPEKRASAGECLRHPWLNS

[9] = target: T5, Dual specificity tyrosine-phosphorylation-regulated kinase 3 (Homo sapiens, UniProt O43781)
T5 sequence (O43781 whole entry): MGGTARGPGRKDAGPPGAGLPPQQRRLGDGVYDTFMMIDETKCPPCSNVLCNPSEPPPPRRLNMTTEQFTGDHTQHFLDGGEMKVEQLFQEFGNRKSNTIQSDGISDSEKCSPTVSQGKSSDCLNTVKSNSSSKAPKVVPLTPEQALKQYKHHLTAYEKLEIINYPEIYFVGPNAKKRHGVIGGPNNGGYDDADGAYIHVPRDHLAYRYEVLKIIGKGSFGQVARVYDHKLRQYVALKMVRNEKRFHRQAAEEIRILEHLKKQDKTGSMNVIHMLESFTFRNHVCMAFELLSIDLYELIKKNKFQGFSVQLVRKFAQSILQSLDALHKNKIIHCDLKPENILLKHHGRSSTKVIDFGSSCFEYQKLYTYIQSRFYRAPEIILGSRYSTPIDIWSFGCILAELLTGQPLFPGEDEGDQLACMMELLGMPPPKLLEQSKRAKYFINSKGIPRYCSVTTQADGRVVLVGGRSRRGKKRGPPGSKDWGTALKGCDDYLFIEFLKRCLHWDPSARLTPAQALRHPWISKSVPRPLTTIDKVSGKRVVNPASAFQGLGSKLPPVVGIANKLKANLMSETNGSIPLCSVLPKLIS

[10] = target: Dual specificity tyrosine-phosphorylation-regulated kinase 1B (Homo sapiens, UniProt Q9Y463)
SRSF protein kinase 2 [11] = target: T4, SRSF protein kinase 2; remark: listed apart in the source
Target sequence in this assay (P78362 whole entry): as the sequence (P78362 whole entry) above
Description: Inhibition of N-terminal nLuc-fused SRPK2 (unknown origin) transfected in lysed HEK293T cells by NanoBRET assay

SRSF protein kinase 3 [12] = target: T1, SRSF protein kinase 3; remark: listed apart in the source
Description: Inhibition of N-terminal nLuc-fused SRPK3 (unknown origin) transfected in intact HEK293T cells by NanoBRET assay

[13] = target: Dual specificity protein kinase CLK1 (Homo sapiens, UniProt P49759); assay: Inhibition of human CLK1 using myelin basic protein as substrate in presence of [gamma-33p]-ATP by radiometric hotspot kinase
[14] = Apparent permeability in human Caco-2 cells
SRSF protein kinase 1 [15] = target: T3, SRSF protein kinase 1; settings: time 10.0 min
[16] = Metabolic stability in human liver microsomes assessed as intrinsic clearance
[17] = Metabolic stability in mouse liver microsomes assessed as intrinsic clearance
[18] = Thermodynamic solubility of the compound in phosphate buffer at pH 7.4
[19] = Clearance in mouse hepatocytes measured per million of cells
physchem = settings: phosphate buffer, pH 7.4
SRSF protein kinase 2 [20] = target: T4, SRSF protein kinase 2; settings: time 10.0 min
Target sequence in this assay (P78362 whole entry, looked up): as the sequence (P78362 whole entry) above

SRSF protein kinase 3 [21] = target: T1, SRSF protein kinase 3; settings: time 10.0 min
[22] = Clearance in human hepatocytes measured per million of cells
Focal adhesion kinase 1 = Focal adhesion kinase 1 (Homo sapiens, UniProt Q05397)
Description: Inhibition of N-terminal NanoLuc-tagged full length FAK (unknown origin) transfected in HEK293T cells pre-incubated with compound for 2 hrs followed by Nano-Glo substrate addition by NanoBRET analysis

SRSF protein kinase 1 [23] = target: T3, SRSF protein kinase 1; assay: Inhibition of C-terminal nLuc-fused SRPK1 (unknown origin) transfected in intact HEK293T cells by NanoBRET assay
[24] = Efflux ratio of apparent permeability in human Caco-2 cells

T1 sequence (Q9UPE1 whole entry): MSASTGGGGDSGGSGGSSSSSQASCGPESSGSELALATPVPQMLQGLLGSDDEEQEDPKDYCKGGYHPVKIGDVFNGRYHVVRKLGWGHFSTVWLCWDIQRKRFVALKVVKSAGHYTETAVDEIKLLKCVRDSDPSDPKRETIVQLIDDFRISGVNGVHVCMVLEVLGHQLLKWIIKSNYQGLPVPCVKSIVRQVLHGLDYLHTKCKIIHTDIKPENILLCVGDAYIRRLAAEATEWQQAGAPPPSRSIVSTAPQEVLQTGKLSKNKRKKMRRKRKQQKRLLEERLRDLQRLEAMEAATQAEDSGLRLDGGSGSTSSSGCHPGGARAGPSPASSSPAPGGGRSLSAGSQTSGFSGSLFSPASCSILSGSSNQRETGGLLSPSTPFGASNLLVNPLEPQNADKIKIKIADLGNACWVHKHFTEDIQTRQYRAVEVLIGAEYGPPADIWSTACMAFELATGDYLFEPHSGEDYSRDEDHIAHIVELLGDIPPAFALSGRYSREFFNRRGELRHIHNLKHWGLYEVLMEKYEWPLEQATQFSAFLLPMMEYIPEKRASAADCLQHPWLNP
Chain of Dual specificity tyrosine-phosphorylation-regulated kinase 1B (Q9Y463 whole entry): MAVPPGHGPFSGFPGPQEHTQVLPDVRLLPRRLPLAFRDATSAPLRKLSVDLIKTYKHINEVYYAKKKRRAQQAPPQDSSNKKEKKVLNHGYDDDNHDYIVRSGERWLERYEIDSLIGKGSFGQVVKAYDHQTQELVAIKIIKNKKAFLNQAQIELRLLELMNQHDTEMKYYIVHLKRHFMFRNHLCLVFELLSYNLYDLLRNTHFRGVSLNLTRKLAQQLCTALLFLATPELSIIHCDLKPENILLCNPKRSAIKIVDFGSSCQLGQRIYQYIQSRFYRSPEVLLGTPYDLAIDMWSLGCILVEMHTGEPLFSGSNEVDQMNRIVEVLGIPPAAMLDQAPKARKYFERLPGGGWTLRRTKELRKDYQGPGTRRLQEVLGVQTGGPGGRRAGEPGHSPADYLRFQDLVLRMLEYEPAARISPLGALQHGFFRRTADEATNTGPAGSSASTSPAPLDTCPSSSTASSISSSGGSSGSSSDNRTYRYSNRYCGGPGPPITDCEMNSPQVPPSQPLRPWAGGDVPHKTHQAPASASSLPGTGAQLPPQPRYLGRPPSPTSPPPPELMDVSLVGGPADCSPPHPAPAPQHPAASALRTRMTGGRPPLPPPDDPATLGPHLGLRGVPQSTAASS
Chain of Dual specificity protein kinase CLK2 (P49760 whole entry): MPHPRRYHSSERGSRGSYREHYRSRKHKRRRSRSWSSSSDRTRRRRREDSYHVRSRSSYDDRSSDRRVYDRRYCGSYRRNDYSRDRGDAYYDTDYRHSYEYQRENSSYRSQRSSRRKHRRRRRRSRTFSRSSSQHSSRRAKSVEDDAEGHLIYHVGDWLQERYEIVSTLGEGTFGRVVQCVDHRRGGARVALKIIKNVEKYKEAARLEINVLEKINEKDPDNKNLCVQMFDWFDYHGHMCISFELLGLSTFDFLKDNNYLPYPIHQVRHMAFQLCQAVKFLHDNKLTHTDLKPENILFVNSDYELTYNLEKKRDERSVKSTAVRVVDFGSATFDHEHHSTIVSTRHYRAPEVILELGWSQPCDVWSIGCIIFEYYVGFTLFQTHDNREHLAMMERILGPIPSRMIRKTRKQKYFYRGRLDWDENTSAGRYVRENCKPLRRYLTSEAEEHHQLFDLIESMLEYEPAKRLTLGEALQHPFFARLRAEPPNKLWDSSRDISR
Chain of Dual specificity protein kinase CLK1 (P49759 whole entry): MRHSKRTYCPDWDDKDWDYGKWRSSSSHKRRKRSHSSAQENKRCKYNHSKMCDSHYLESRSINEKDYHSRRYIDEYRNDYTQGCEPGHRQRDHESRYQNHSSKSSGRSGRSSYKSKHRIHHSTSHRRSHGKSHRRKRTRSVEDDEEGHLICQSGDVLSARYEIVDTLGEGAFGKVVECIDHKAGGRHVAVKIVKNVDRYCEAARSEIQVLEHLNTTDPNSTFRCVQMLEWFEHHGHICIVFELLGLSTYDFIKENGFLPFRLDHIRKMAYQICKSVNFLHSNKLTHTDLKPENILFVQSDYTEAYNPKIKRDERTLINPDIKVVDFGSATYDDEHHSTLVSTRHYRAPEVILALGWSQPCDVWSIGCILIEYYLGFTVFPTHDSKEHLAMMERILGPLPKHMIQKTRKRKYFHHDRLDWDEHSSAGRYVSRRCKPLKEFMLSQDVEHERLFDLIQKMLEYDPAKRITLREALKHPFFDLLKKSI
Chain of Dual specificity protein kinase CLK4 (Q9HAZ1 whole entry): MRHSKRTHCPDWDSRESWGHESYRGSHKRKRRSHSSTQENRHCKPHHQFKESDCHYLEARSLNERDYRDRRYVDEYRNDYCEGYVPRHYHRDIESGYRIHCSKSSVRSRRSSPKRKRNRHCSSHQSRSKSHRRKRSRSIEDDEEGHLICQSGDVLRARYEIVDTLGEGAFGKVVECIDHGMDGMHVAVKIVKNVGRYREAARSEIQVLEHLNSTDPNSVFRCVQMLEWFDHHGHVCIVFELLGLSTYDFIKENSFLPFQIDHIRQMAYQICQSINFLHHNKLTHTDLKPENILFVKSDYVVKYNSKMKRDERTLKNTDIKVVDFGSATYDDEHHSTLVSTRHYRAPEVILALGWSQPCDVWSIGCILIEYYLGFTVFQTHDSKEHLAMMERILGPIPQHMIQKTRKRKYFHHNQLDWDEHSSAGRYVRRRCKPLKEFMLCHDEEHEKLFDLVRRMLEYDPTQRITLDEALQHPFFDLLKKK
Chain of Dual specificity protein kinase CLK3 (P49761 whole entry): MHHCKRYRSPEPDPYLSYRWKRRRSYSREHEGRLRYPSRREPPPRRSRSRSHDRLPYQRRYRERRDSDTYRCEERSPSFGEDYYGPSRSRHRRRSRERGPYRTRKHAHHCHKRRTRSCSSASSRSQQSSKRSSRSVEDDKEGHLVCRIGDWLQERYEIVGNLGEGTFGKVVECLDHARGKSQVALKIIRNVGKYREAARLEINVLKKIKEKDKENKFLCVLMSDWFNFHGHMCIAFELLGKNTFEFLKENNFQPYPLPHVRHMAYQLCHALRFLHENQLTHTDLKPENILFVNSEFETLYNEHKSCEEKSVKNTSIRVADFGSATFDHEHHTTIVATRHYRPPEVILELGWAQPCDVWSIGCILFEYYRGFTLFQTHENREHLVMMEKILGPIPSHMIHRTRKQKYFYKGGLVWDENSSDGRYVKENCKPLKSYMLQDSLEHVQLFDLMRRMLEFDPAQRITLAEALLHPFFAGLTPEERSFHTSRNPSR
T3 sequence (Q96SB4 whole entry): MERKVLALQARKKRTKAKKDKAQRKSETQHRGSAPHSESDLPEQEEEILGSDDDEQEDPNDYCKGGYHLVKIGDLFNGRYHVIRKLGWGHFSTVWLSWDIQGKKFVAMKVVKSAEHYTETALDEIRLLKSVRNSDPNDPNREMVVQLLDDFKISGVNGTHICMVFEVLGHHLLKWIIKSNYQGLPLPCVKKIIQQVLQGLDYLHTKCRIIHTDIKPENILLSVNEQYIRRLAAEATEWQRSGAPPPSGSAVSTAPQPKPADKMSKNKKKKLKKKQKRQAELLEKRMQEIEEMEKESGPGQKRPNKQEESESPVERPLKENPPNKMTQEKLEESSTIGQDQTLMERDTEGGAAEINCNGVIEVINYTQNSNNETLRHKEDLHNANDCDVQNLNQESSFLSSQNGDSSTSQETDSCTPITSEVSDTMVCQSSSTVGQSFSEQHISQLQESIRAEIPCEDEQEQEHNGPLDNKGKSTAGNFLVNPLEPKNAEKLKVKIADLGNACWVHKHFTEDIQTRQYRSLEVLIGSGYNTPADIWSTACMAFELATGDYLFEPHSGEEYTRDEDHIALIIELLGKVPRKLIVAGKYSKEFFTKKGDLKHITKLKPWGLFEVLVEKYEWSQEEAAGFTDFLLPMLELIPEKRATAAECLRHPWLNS

Row | pIC50 [1] | pIC50 [2] | pIC50 (SRSF protein kinase 3 [3]) | pIC50 [4] | pIC50 (SRSF protein kinase 1 [5]) | pIC50 [6] | pIC50 [7] | pIC50 (SRSF protein kinase 2 [8]) | pIC50 [9] | pIC50 [10] | pIC50 [13] | Compound | further results
1 | 5.80 | 5.24 | 6.78 | < 5.00 |  | 6.58 | < 5.00 | 6.59 | < 5.00 | 5.74 | 6.08 | O=C(Nc1cc(C(F)(F)F)ccc1N1CCN(Cc2ccccn2)CC1)c1ccc(-c2ccncc2)o1 | pEC50 (SRSF protein kinase 2 [11]): 6.19; pEC50 (SRSF protein kinase 3 [12]): 5.21
2 | < 5.00 | < 5.00 |  | < 5.00 |  | < 5.00 | < 5.00 |  | < 5.00 | < 5.00 | < 5.00 | CN(c1ncccc1CNc1ccnc(-c2nc3c(F)c(Cl)ccc3[nH]2)n1)S(C)(=O)=O | Papp [14]: 7.2 ×10⁻⁶ cm/s; ΔTm (SRSF protein kinase 1 [15]): 9.1 °C; CLint [16]: 504 µL/min/mg; CLint [17]: 196 µL/min/mg; solubility thermodynamic [18]: < 1 µg/mL; hepatocyte CLint [19]: 354 µL/min/1e6 cells; solubility kinetic at 2 h (physchem): < 2 µM; ΔTm (SRSF protein kinase 2 [20]): 4 °C; ΔTm (SRSF protein kinase 3 [21]): 9.6 °C; hepatocyte CLint [22]: 51 µL/min/1e6 cells
3 |  |  |  |  |  |  |  |  |  |  |  | c1ccc(-c2nn[nH]n2)nc1 | pEC50 (Focal adhesion kinase 1): 3.60
4 | < 5.00 | < 5.00 | 7.57 | < 5.00 | 7.08 | < 5.00 | < 5.00 | 5.82 | < 5.00 | < 5.00 | < 5.00 | O=C(Nc1cc(C(F)(F)F)ccc1N1CCCCC1)c1ccncc1 | pEC50 (SRSF protein kinase 2 [11]): 5.59; pEC50 (SRSF protein kinase 3 [12]): 6.40; pEC50 (SRSF protein kinase 1 [23]): 5.63
5 |  |  |  |  |  |  |  |  |  |  |  | c1ccc(-c2nc3ccccc3[nH]2)nc1 | pEC50 (Focal adhesion kinase 1): 3.99
6 |  |  |  |  | < 5.00 |  |  | < 5.00 |  |  |  | CN(c1ncccc1CNc1ccnc(-c2cc3cc(Cl)ccc3[nH]2)n1)S(C)(=O)=O | Papp [14]: 2 ×10⁻⁶ cm/s; CLint [16]: 771 µL/min/mg; CLint [17]: 784 µL/min/mg; solubility thermodynamic [18]: < 1 µg/mL; efflux ratio [24]: 1.6; hepatocyte CLint [19]: 1100 µL/min/1e6 cells; solubility kinetic at 2 h (physchem): 2.3 µM (≈ 1.02 µg/mL); hepatocyte CLint [22]: 156 µL/min/1e6 cells

Row | Compound | pIC50 [1] | pIC50 [2] | pIC50 (SRSF protein kinase 3 [3]) | pIC50 [4] | pIC50 (SRSF protein kinase 1 [5]) | pIC50 [6] | pIC50 [7] | pIC50 (SRSF protein kinase 2 [8]) | pIC50 [9] | pIC50 [10] | pIC50 [13] | further results
7 | CCc1cc2c(cc1-c1cccc(S(=O)(=O)F)c1)C(C)(C)c1[nH]c3cc(C#N)ccc3c1C2=O | 6.65 | 6.04 | 8.32 | 5.24 | 8.77 | 6.80 | < 4.52 | 8.60 | 5.17 | 6.53 |  | 
